Biological target: T1, CaCYP51 G307S+G450E (Candida albicans, UniProt P10613, G307S/G450E)
T1 construct: made in house; host or cells: E. coli DH5α (pCWori+)
Test: Azole ligand binding (type II difference spectra)
Experimental: Studies of azole antifungal binding to 4 μM CaCYP51 proteins were performed as previously described ([53]) using quartz split cuvettes with a 4.5-mm light path. […] Azole antifungals were progressively titrated against the CaCYP51 proteins in 0.1 M Tris-HCl (pH 8.1) and 25% glycerol at 22°C, with equivalent volumes of dimethyl sulfoxide also being added to the CYP51-containing compartment of the reference cuvette. The absorbance difference spectra between 500 and 350 nm were determined after each incremental addition of azole, with binding saturation curves constructed from the change in the peak and trough absorbance (ΔApeak-trough) against the azole concentration. The dissociation constant (Kd) of the enzyme-azole complex for each azole was determined by nonlinear regression (Levenberg-Marquardt algorithm) using a rearrangement of the Morrison equation for tight ligand binding ([54], [55]). Tight binding is normally observed when the Kd for a ligand is similar to or lower than the concentration of the enzyme present ([56]). Where ligand binding was weak, the Michaelis-Menten equation was used to fit the data. Each binding determination was performed in triplicate. The chemical structures of the azole antifungals used in this study are shown in Fig. S5 in the supplemental material.

T1 sequence (P10613 whole entry, looked up, stated change not applied): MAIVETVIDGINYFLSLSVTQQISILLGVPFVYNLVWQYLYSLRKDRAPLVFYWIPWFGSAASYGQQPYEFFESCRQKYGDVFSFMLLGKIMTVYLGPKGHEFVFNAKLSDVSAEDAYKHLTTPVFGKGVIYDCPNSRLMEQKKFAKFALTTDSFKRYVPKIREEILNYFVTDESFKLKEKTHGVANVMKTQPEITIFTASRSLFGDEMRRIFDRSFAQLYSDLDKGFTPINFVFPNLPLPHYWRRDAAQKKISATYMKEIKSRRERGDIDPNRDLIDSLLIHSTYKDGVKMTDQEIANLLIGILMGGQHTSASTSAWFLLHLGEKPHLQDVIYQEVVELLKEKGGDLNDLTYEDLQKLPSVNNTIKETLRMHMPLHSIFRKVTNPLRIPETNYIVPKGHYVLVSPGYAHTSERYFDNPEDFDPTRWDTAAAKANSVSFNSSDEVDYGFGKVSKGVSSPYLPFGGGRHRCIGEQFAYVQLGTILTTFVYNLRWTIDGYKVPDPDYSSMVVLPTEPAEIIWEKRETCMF

`OC(Cn1cncn1)(Cn1cncn1)c1ccc(F)cc1F` [Fluconazole, fluconazole] was tested, and the “Kd, fold higher than wild-type enzyme” value was 3 fold and the Kd (4 μM protein, 22°C, ± standard deviation, triplicate, read-out: dissociation constant (Kd)) was 158 ± 38 nM.

— PMC6496074, “The Evolution of Azole Resistance in Candida albicans Sterol 14α-Demethylase (CYP51) through Incremental Amino Acid Substitutions” (Antimicrobial Agents and Chemotherapy, 2019)
